Data published in patent publication US5811391A, “Cyclic CS-1 peptidomimetics, compositions and methods of using same” (Cytel Corporation, priority 1995, dated 1998).
Positions of bridges follow the written chain, without caps; N, C: chain ends. Non-standard residues stand in square brackets, D forms with d. Residues, ends and D or L forms follow the SMILES beside them. *: point of attachment. Pen = CC(C)(S)[C@H](N)C(=O)O; PhAc = O=C(Cc1ccccc1)*

Molecular target: VLA-4 (Homo sapiens, UniProt P05556+P13612)
Experiment: In vitro binding assay: 51Cr-labeled Jurkat cells to solid phase-bound CS-1 peptide (SEQ ID NO:5)
Assay type: cell-based
Design: inflammatory cells that contain the VLA-4 receptor [Jurkat cells; host or cells: Jurkat cells (human T lymphoblastic line)
Settings: for Relative Potency: CS-1; for Potency in inhibiting Jurkat cell binding to CS-1 relative to standard 10-mer of SEQ ID NO:6: times/fold more potent than SEQ ID NO:6
Protocol: Binding inhibition is measured here as a concentration of peptide that inhibits one-half the binding between a standard number of Jurkat cells and a standard amount of CS-1 peptide bound to the surface of a microtiter plate well. Those concentrations are conveniently expressed as IC50 values, smaller numbers indicating a lower concentration required to inhibit 50 percent binding and therefore greater potency. Further specifics of this assay are provided hereinafter.
Jurkat cells (ATCC TIB 152), a human T lymphoblastic line, labeled with ^51 chromium were used to assay in vitro binding inhibition provided by various peptides discussed herein.
The plates were prepared as follows: The 25-mer CS-1 peptide (SEQ ID NO:5) dissolved at 0.5-1 μg/ml in a buffer of 0.1M NaHCO3 at pH 9.5 that also contained 10 μg/ml of bovine serum albumin (BSA) or a conjugate of the CS-1 peptide linked to ovalbumin (CS-1-OVA) dissolved at 1-2.5 μg/ml in the same buffer was used as the substrate. Each well of the microtiter plates was coated with 50 μl of substrate or buffer alone for controls. The wells were permitted to dry out completely and were then rinsed twice with PBS at pH 7.4. Non-specific binding sites of each well were then blocked using 200 μl per well of RPMI/1 percent BSA for two hours at room temperature. Both solid phase-affixed substrates provided similar results.
Jurkat cells (3-5×10^6 cells) were placed into a 15 ml FALCON™ round-bottom tube with a cap. The tube was centrifuged, and the extra medium was then removed.
Two hundred microliters of a ^51 Cr labeling solution were added to the centrifuged cells and maintained in contact with the cells for 90-120 minutes in a warm room. This procedure typically provides about 50,000-100,000 cpm/well with about 80-100 percent cell viability. Longer contact times provide a greater amount of labeling but lower cell viability.
The labeled cells were washed with (i) complete medium, (ii) 1mM EDTA/PBS and then (iii) RPM1/1 percent BSA free of serum components. The cells were centrifuged after each washing. The cells were finally resuspended in serum-free RPMI/1 percent BSA at a concentration of 1×10^6 viable cells/ml, which provides a concentration that is diluted by one-half in the assay.
Cyclic inhibitor peptides were prepared as stock solutions at 20 mg/ml in DMSO in 1.5 ml cryogenic screwcap vials, and were stored at -70° C. Using FLOW™ round-bottom or V-bottom microtiter plates, the inhibitor peptides were prepared at twice the assay concentration in RPMI/1 percent BSA at 60 μl/well.
Four initial dilutions were typically used.
The ^51 Cr-labeled cells (1×10^6 cells at 60 μl/well) were then admixed with the diluted cyclic peptide solutions. The admixtures were maintained at room temperature (about 22° C.) for 30 minutes.
One hundred microliters of each inhibitor peptide/cell admixture were transferred to the substrate-coated wells. This was done in triplicate for each dilution. The resulting plates were incubated for 30 minutes at 37° C. and then washed gently three times with RPMI/1 percent BSA at 200 μl/well. Binding was observed microscopically, particularly after the second wash.
The bound cells were then lysed by the addition of a 0.5 percent solution of sodium dodecylsulfate in water at 100 μl/well. The resulting solutions were then processed for counting and calculation of IC50 values following usual procedures. Appropriate positive and negative controls were used with each plate so that the results of separate assays could be normalized and compared.
The potency data of Table 1 and Table 2 are so normalized. The absolute IC50 value for the peptide of SEQ ID NO:7 is 0.3 μM.

[1] = Table 2, normalized IC50 potency relative to standard peptide SEQ ID NO:6, Jurkat cells
[2] = Table 1, normalized IC50 potency relative to standard peptide SEQ ID NO:6 (=1), Jurkat cells

VLA-4, sequence (P13612 34-1032): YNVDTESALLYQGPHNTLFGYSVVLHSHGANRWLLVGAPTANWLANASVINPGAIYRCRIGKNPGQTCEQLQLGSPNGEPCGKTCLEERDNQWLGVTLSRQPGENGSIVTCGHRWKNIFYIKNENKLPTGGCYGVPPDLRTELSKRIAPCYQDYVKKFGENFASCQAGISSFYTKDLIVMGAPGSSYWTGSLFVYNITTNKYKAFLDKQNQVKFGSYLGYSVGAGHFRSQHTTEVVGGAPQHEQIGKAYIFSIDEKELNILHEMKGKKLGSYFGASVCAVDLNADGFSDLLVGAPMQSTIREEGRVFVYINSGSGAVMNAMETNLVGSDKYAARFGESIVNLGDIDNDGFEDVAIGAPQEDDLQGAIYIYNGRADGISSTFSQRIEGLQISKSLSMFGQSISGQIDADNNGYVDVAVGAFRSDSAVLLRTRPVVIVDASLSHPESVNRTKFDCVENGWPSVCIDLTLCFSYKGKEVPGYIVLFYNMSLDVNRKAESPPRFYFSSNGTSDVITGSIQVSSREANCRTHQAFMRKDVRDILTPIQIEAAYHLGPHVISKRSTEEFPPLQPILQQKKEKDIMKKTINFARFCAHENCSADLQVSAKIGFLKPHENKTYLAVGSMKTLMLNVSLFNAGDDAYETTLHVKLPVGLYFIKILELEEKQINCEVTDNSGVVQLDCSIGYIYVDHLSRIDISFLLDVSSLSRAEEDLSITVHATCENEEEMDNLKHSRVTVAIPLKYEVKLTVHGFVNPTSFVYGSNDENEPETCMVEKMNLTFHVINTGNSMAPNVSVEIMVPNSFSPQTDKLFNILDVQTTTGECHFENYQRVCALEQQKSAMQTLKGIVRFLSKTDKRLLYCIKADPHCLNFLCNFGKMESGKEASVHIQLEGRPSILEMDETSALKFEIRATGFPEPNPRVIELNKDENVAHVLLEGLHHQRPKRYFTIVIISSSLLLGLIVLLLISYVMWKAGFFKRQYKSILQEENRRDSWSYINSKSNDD
VLA-4, sequence (P05556 21-798): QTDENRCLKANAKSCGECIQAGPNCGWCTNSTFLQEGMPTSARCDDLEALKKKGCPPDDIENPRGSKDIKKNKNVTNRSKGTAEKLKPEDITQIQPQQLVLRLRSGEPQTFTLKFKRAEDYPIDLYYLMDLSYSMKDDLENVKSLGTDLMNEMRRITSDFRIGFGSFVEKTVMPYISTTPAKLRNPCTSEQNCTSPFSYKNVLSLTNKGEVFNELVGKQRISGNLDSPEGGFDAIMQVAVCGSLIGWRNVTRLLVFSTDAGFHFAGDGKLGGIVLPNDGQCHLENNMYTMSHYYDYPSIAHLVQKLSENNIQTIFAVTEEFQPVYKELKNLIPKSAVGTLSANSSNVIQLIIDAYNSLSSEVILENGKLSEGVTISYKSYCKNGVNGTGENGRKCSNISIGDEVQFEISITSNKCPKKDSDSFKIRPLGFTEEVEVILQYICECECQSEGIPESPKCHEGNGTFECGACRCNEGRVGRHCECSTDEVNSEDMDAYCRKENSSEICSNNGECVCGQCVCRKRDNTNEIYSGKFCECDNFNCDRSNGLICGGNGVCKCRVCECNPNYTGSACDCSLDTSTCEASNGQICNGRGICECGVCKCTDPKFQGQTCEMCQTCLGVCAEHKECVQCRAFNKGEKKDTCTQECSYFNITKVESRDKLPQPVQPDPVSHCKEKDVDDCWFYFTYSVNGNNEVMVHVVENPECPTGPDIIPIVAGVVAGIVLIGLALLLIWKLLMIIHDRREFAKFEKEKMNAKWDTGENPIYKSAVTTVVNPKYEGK

Row | Compound | Relative Potency [2] | also measured
1 | CC(=O)N[C@H]1CSSC[C@@H](C(=O)N2CCC[C@@H]2C(N)=O)NC(=O)[C@H](CC(=O)O)NC(=O)[C@H](CC(C)C)NC1=O (Ac-CLDC[dP]-NH2; disulfide 1-4) | – | Relative Potency [1]: 0
2 | CC(C)C[C@@H]1NC(=O)[C@H](Cc2ccccc2)NC(=O)[C@H](CCC(=O)O)NC(=O)[C@@H]2CCCN2C(=O)CNC(=O)[C@@H](N)CSSC[C@@H](C(N)=O)NC(=O)[C@@H]2CCCN2C(=O)[C@H](Cc2ccccc2)NC(=O)[C@H](CC(=O)O)NC1=O (H-CGPEFLDFPC-NH2; disulfide 1-10) | – | Relative Potency [1]: 6.26
3 | NC(=O)[C@@H]1CSSC[C@H](NC(=O)[C@H](N)Cc2ccccc2)C(=O)N[C@@H](CC(=O)O)C(=O)N[C@@H](Cc2ccccc2)C(=O)N1 (H-[dF]CDFC-NH2; disulfide 2-5) | – | Relative Potency [1]: 3.13
4 | CC1(C)SSC[C@H](C(N)=O)NC(=O)[C@H](Cc2ccccc2)NC(=O)[C@H](CC(=O)O)NC(=O)[C@H]1NC(=O)Cc1ccccc1 [.phi.AcJDFc-NH2] (PhAc-[Pen]DF[dC]-NH2; disulfide 1-4) | 4 | –
5 | CC(=O)N[C@@H](CC(C)C)C(=O)N[C@@H](CC(=O)O)C(=O)N[C@@H](Cc1ccccc1)C(N)=O [AcLDF-NH2] (Ac-Leu-Asp-Phe-NH2) | < 1 | –
6 | CC(=O)N[C@@H](CC(C)C)C(=O)N[C@@H](CC(=O)O)C(=O)N[C@H](C(N)=O)C(C)C [AcLDV-NH2, reference compound] (Ac-Leu-Asp-Val-NH2) | < 1 | Potency in inhibiting Jurkat cell binding to CS-1 relative to standard 10-mer of SEQ ID NO:6: about 1
7 | CC(C)C[C@H](N)C(=O)N[C@@H](CC(=O)O)C(=O)N[C@@H](Cc1ccccc1)C(N)=O [LDF-NH2] (H-Leu-Asp-Phe-NH2) | 0 | –
8 | CC(C)C[C@H](N)C(=O)N[C@@H](CC(=O)O)C(=O)N[C@H](C(N)=O)C(C)C [LDV-NH2, reference compound] (H-Leu-Asp-Val-NH2) | 0 | Potency in inhibiting Jurkat cell binding to CS-1 relative to standard 10-mer of SEQ ID NO:6: zero

Continued, in another order:

Row | Relative Potency [2] | Compound | also measured
9 | 253 | CC(C)C[C@@H]1NC(=O)[C@H](Cc2ccccc2)NC(=O)[C@@H](N)CSSC[C@@H](C(N)=O)NC(=O)[C@@H]2CCCN2C(=O)[C@H](Cc2ccccc2)NC(=O)[C@H](CC(=O)O)NC1=O [SEQ ID NO:10, CFLDFPC-N2] (H-CFLDFPC-NH2; disulfide 1-7) | inhibition of binding to CS-1 (in words): excellent inhibitors; IC50 (Jurkat cells, solid phase-bound CS-1, read-out: absolute value of IC50): ~600 nM; Potency in inhibiting Jurkat cell binding to CS-1 relative to standard 10-mer of SEQ ID NO:6: about 253
10 | 134 | CC(=O)N[C@H]1CSSC[C@@H](C(N)=O)NC(=O)[C@@H]2CCCN2C(=O)[C@H](Cc2ccccc2)NC(=O)[C@H](CC(=O)O)NC(=O)[C@H](CC(C)C)NC(=O)[C@H](Cc2ccccc2)NC1=O [SEQ ID NO:11, AcCFLDFPC-NH2] (Ac-CFLDFPC-NH2; disulfide 1-7) | –
11 | 131 | NC(=O)[C@@H]1CSSC[C@H](NC(=O)[C@@H](N)Cc2ccccc2)C(=O)N[C@@H](CC(=O)O)C(=O)N[C@@H](Cc2ccccc2)C(=O)N2CCC[C@H]2C(=O)N1 [SEQ ID NO:12, FCDFPC-NH2] (H-FCDFPC-NH2; disulfide 2-6) | –
12 | 94 | CC1(C)SSC[C@@H](C(N)=O)NC(=O)[C@H](Cc2ccccc2)NC(=O)[C@H](CC(=O)O)NC(=O)[C@H]1NC(=O)Cc1ccccc1 [SEQ ID NO:14, .phi.AcJDFC-NH2] (PhAc-[Pen]DFC-NH2; disulfide 1-4) | –
13 | 81 | CC(C)C[C@@H]1NC(=O)[C@H](Cc2ccccc2)NC(=O)[C@@H](N)CSSC[C@@H](C(N)=O)NC(=O)[C@H]([C@@H](C)O)NC(=O)[C@H](CO)NC(=O)[C@@H]2CCCN2C(=O)[C@H](Cc2ccccc2)NC(=O)[C@H](CC(=O)O)NC1=O [SEQ ID NO:15, CFLDFPSTC-NH2] (H-CFLDFPSTC-NH2; disulfide 1-9) | –
14 | 56 | CC(C)C[C@@H]1NC(=O)[C@H](Cc2ccccc2)NC(=O)[C@H](CCC(=O)O)NC(=O)[C@@H]2CCCN2C(=O)[C@@H](N)CSSC[C@@H](C(N)=O)NC(=O)[C@@H]2CCCN2C(=O)[C@H](Cc2ccccc2)NC(=O)[C@H](CC(=O)O)NC1=O [SEQ ID NO:16, CPEFLDFPC-NH2] (H-CPEFLDFPC-NH2; disulfide 1-9) | –
